Source: patent US10759767B2 (priority 2012, dated 2020)
Like-named read-outs stand apart in the source and are kept apart here.

Legend:
Leptosphaeria nodorum = experiment: Microtest: activity against wheat leaf spots caused by Leptosphaeria nodorum (Leptno); format: cell-based; details: Parastagonospora nodorum, 168 h, read-out: Observed efficacy
Alternaria solani = experiment: Microtest: activity against early blight caused by Alternaria solani (Alteso); format: cell-based; details: Alternaria solani, 168 h, read-out: Observed efficacy
Botrytis cinerea = experiment: Microtest: activity against the grey mold Botrytis cinerea (Botrci); format: cell-based; details: Botrytis cinerea, 168 h, read-out: Observed efficacy
Pyricularia oryzae = experiment: microbe, parasite or virus in culture; format: cell-based
Phytophthora infestans = experiment: microbe, parasite or virus in culture; format: cell-based; details: Phytophthora infestans, 168 h, read-out: Observed efficacy
Septoria tritici = experiment: Microtest: activity against leaf blotch on wheat caused by Septoria tritici (Septtr); format: cell-based; details: solo product
[1] = Pyricularia oryzae, 168 h, read-out: Observed efficacy

For CC#CC(O)(Cn1cncn1)c1ccc(Oc2ccc(Cl)cc2)cc1Cl (centres unmarked) [I-1, 2-[2-chloro-4-(4-chlorophenoxyl)phenyl]-1-(1,2,4-triazol-1-yl)pent-3-yn-2-ol], which inhibition of growth at […] (Leptosphaeria nodorum; solo 0.063 ppm) is on record?
Its inhibition of growth at […] is 19%.

What about the inhibition of growth at 6.3e-05 ppm (Leptosphaeria nodorum; solo product, 0.000063 ppm) of the same compound?
Its inhibition of growth at 6.3e-05 ppm is 12%.

And the inhibition of growth at […] (Alternaria solani; solo 0.00025 ppm)?
Its inhibition of growth at […] is 4%.

What about the inhibition of growth at 0.001 ppm (Alternaria solani; solo 0.001 ppm) of the same compound?
The inhibition of growth at 0.001 ppm was 10%.

What about the inhibition of growth at 1e-06 ppm (Botrytis cinerea; solo 0.000001 ppm) of the same compound?
The inhibition of growth at 1e-06 ppm was 4%.

And the inhibition of growth at 4e-06 ppm (Botrytis cinerea; solo 0.000004 ppm)?
The inhibition of growth at 4e-06 ppm was 0%.

What about the inhibition of growth at 1.6e-05 ppm (Botrytis cinerea; solo 0.000016 ppm) of the same compound?
Its inhibition of growth at 1.6e-05 ppm is 1%.

What about the inhibition of growth at 6.3e-05 ppm (Botrytis cinerea; solo 0.000063 ppm) of the same compound?
The inhibition of growth at 6.3e-05 ppm was 0%.

What about the inhibition of growth at […] (Botrytis cinerea; solo 0.063 ppm) of the same compound?
The inhibition of growth at […] was 16%.

And the inhibition of growth at 0.001 ppm (Pyricularia oryzae; [1])?
Its inhibition of growth at 0.001 ppm is 3%.

And the inhibition of growth at 0.016 ppm (Pyricularia oryzae; [1])?
The inhibition of growth at 0.016 ppm was 0%.

What about the Observed efficacy (Pyricularia oryzae; solo product, 0.016 ppm) of the same compound?
Its Observed efficacy is 0%.

And the inhibition of growth at 16 ppm (Phytophthora infestans)?
Its inhibition of growth at 16 ppm is 0%.

And the melting point?
The melting point was 137 °C.

What about the inhibition of growth at 4e-06 ppm (Septoria tritici; Zymoseptoria tritici, 168 h, second Septtr microtest, 0.000004 ppm, read-out: Observed efficacy) of the same compound?
Its inhibition of growth at 4e-06 ppm is 11%.

And the inhibition of growth at […] (Septoria tritici; Zymoseptoria tritici, 168 h, second Septtr microtest, 0.00063 ppm, read-out: Observed efficacy)?
Its inhibition of growth at […] is 17%.

And the inhibition of growth at 6.3e-05 ppm (Septoria tritici; Zymoseptoria tritici, 168 h, 0.000063 ppm, read-out: Observed efficacy)?
The inhibition of growth at 6.3e-05 ppm was 17%.

With CC(C)C(O)(Cn1cncn1)c1ccc(Oc2ccc(Cl)cc2)cc1C(F)(F)F (centres unmarked) [I-5, 2-[4-(4-chlorophenoxy)-2-(trifluoromethyl)phenyl]-3-methyl-1-(1,2,4-triazol-1-yl)butan-2-ol] as the compound, how does the inhibition of growth at […] (Leptosphaeria nodorum; solo 0.25 ppm) read?
Its inhibition of growth at […] is 19%.

And the inhibition of growth at 0.001 ppm (Leptosphaeria nodorum; solo product, 0.001 ppm)?
Its inhibition of growth at 0.001 ppm is 9%.

And the inhibition of growth at […] (Leptosphaeria nodorum; solo product, 0.063 ppm)?
Its inhibition of growth at […] is 20%.

What about the inhibition of growth at 4e-06 ppm (Alternaria solani; solo 0.000004 ppm) of the same compound?
Its inhibition of growth at 4e-06 ppm is 8%.

And the inhibition of growth at 0.004 ppm (Alternaria solani; solo 0.004 ppm)?
Its inhibition of growth at 0.004 ppm is 11%.

What about the inhibition of growth at 0.016 ppm (Alternaria solani; solo 0.016 ppm) of the same compound?
The inhibition of growth at 0.016 ppm was 10%.

And the inhibition of growth at […] (Alternaria solani; solo 0.063 ppm)?
The inhibition of growth at […] was 14%.

What about the inhibition of growth at 1 ppm (Alternaria solani; solo 1 ppm) of the same compound?
Its inhibition of growth at 1 ppm is 49%.

And the inhibition of growth at […] (Botrytis cinerea; solo 0.063 ppm)?
Its inhibition of growth at […] is 14%.

And the inhibition of growth at […] (Botrytis cinerea; solo 0.25 ppm)?
Its inhibition of growth at […] is 27%.

What about the inhibition of growth at 0.001 ppm (Pyricularia oryzae; [1]) of the same compound?
Its inhibition of growth at 0.001 ppm is 5%.

And the inhibition of growth at 0.004 ppm (Pyricularia oryzae; [1])?
The inhibition of growth at 0.004 ppm was 0%.

And the inhibition of growth at 0.016 ppm (Pyricularia oryzae; [1])?
Its inhibition of growth at 0.016 ppm is 0%.

What about the inhibition of growth at 1 ppm (Pyricularia oryzae; [1]) of the same compound?
Its inhibition of growth at 1 ppm is 67%.

What about the inhibition of growth at 16 ppm (Phytophthora infestans) of the same compound?
The inhibition of growth at 16 ppm was 2%.

And the inhibition of growth at 63 ppm (Phytophthora infestans)?
Its inhibition of growth at 63 ppm is 45%.

What about the melting point of the same compound?
Its melting point is 114 °C.

What about the inhibition of growth at 2.5e-07 ppm (Septoria tritici; Zymoseptoria tritici, 168 h, second Septtr microtest, 0.00000025 ppm, read-out: Observed efficacy) of the same compound?
Its inhibition of growth at 2.5e-07 ppm is 5%.

And the inhibition of growth at 1e-06 ppm (Septoria tritici; Zymoseptoria tritici, 168 h, second Septtr microtest, 0.000001 ppm, read-out: Observed efficacy)?
The inhibition of growth at 1e-06 ppm was 10%.

What about the inhibition of growth at 1.6e-05 ppm (Septoria tritici; Zymoseptoria tritici, 168 h, 0.000016 ppm, read-out: Observed efficacy) of the same compound?
The inhibition of growth at 1.6e-05 ppm was 13%.

What about the Observed efficacy (Septoria tritici; second Septtr microtest, 0.000016 ppm) of the same compound?
Its Observed efficacy is 13%.
